In one experiment the test system is C. albicans. Kind of experiment: In vitro microbicidal activity against C. albicans (log reduction vs inoculum control). The class given is cell-based. The settings on record: 0.2% phosphate buffer, isotonic NaCl, PHMB 0.0001%, pH 7.2. The procedure: A formulation containing guanine was prepared in a 0.2% phosphate buffer. The solution was made isotonic with sodium chloride and preserved with polyhexamethylene biquanide at 0.0001%. The pH was adjusted to 7.2 with either 1 N sodium hydroxide or 1 N hydrochloric acid. The in vitro microbicidal activity of the test and control solution was determined by exposing C. albicans to 10 ml of each solution at room temperature for 4 and 24 hours. Subsequently, an aliquot of each solution was serial diluted onto agar plates and incubated for 48 hours at elevated temperatures. At the conclusion of the incubation period the plates are examined for the development of colonies. The log reduction was determined based on a comparison to the inoculum control. The following table provides the results of the in vitro studies.

Experiment [1] has as its system Acanthamoeba castellanii cysts. The experiment is described as follows: In vitro anti-acanthamoeba activity (serial dilution, viable trophozoites, log reduction). The class given is cell-based. To be noted: 0.5% guanine with PHMB 0.02% versus control without guanine. How it is done:
A formulation containing 0.5% guanine was prepared in a 0.2% glycine buffer at pH 7.35. The solution was preserved with polyhexamethylene biquanide at 0.02%. A similar control was prepared except without the guanine. The in vitro anti-acanthamoeba activity of the test and control solutions was determined by exposing Acanthamoeba castellanii cysts to 2 ml of each solution at room temperature for 10 minutes. Subsequently, an aliquot of each solution was serial diluted in duplicate and incubated for 14 days. At the conclusion of the incubation period, the dilutions were examined for viable Acanthamoeba trophozoites. The log reduction was determined based on a comparison to the inoculum control. A negative control was performed to verify the technique. The following table provides the results of the in vitro studies.

Results on one molecule are retold here after patent US6624203B1, “Nucleic acid bases used in ophthalmic solutions” (priority 2001, dated 2003).

Turning to `Nc1nc2nc[nH]c2c(=O)[nH]1` [Guanine, guanine], in the experiment on C. albicans (C. albicans exposed to 10 ml solution at room temperature for 4 hours), the “log reduction, 4 hours” value is given as 0.97. Further, in the experiment on C. albicans (C. albicans exposed to 10 ml solution at room temperature for 24 hours), the “log reduction, 24 hours” value is 3.05. Also, the “Effect of guanine on activity of preserved formulations against Acanthamoeba” value in experiment [1] is recorded as “improves the activity of preserved formulations against Acanthamoeba”.
